In PubChem BioAssay (NCI):
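96-well plates; 48 h exposure; 5 concentrations. Endpoints by linear interpolation between flanking doses. Not reached: highest tested concentration assigned. TGI is the concentration that stops growth completely.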

Tests used:
RXF-631 renal = experiment: NCI tumour cell line growth inhibition, 48 h
P388/ADR leukemia = experiment: NCI tumour cell line growth inhibition, 48 h

Compound | TGI (RXF-631 renal) [µM] | TGI (P388/ADR leukemia) [µM]
CCN(CC)CCNc1ccc2nnn3c4ccc(C)cc4c(=O)c1c23 | 18.4 | 
CC(=O)c1ccc2c(c1)c1c(C)c3c[n+](C)ccc3c(C)c1n2C |  | 21.6
